Assay results as given in ChEMBL document CHEMBL6074699, “Innovative Cancer Therapies: Targeting Oncogenic Pathways through Placental Immunology, PROTAC Technology, and Kinase Degradation” (ACS Med Chem Lett, 2024).

Key:
Type in all cases: cell-based
Calu-1 [1] = experiment: PROTAC activity at DDB1/CDK4 in human Calu-1 cells assessed as induction of CDK4 degradation at 40 nM incubated for 16 hrs relative to control
Calu-1 [2] = experiment: PROTAC activity at DDB1/CyclinD1 in human Calu-1 cells assessed as induction of cyclin D1 degradation at 40 nM incubated for 16 hrs relative to control
Calu-1 [3] = experiment: PROTAC activity at DDB1/CyclinD1 in human Calu-1 cells assessed as induction of cyclin D1 degradation at 400 nM incubated for 16 hrs relative to control
Calu-1 [4] = experiment: PROTAC activity at DDB1/CDK4 in human Calu-1 cells assessed as induction of CDK4 degradation at 400 nM incubated for 16 hrs relative to control

CC(=O)c1c(C)c2cnc(Nc3ccc(N4CCN(CC(=O)NCCCCCCCNc5nc(C)ccc5C(=O)Nc5ccc(C)c(C6CC6)n5)CC4)cn3)nc2n(C2CCCC2)c1=O
Activity (Calu-1 [1]): < 80% | Activity (Calu-1 [2]): > 80% | Activity (Calu-1 [3]): > 80% | Activity (Calu-1 [4]): > 80%

COc1ccc(NC(=O)c2ccc(C)nc2NCCCCCCCNC(=O)CN2CCN(c3ccc(Nc4ncc5c(C)c(C(C)=O)c(=O)n(C6CCCC6)c5n4)nc3)CC2)nn1
Activity (Calu-1 [1]): < 80% | Activity (Calu-1 [2]): > 80% | Activity (Calu-1 [3]): > 80% | Activity (Calu-1 [4]): > 80%

CC(=O)c1c(C)c2cnc(Nc3ccc(N4CCN(CC(=O)NCCCCCCCNc5nc(C)ccc5C(=O)Nc5ccc(N(C)C)nn5)CC4)cn3)nc2n(C2CCCC2)c1=O
Activity (Calu-1 [1]): < 80% | Activity (Calu-1 [2]): > 80% | Activity (Calu-1 [3]): > 80% | Activity (Calu-1 [4]): > 80%

CNc1ccc(C(=O)Nc2ccc(N(C)C)nn2)c(NCCCCC(C)NC(=O)CN2CCN(c3ccc(Nc4ncc5c(C)c(C(C)=O)c(=O)n(C6CCCC6)c5n4)nc3)CC2)n1 (centres undefined)
Activity (Calu-1 [1]): > 80% | Activity (Calu-1 [2]): > 80% | Activity (Calu-1 [3]): > 80% | Activity (Calu-1 [4]): > 80%

CC(=O)c1c(C)c2cnc(Nc3ccc(N4CCN(CC(=O)NCCCCCNc5nc(C6CC6)ccc5C(=O)Nc5ccc(N(C)C)nn5)CC4)cn3)nc2n(C2CCCC2)c1=O
Activity (Calu-1 [1]): > 80% | Activity (Calu-1 [2]): > 80% | Activity (Calu-1 [3]): > 80% | Activity (Calu-1 [4]): > 80%

CNc1ccc(C(=O)Nc2ccc(N(C)C)nn2)c(NCCCCNC(=O)CCN2CCN(c3ccc(Nc4ncc5c(C)c(C(C)=O)c(=O)n(C6CCCC6)c5n4)nc3)CC2)n1
Activity (Calu-1 [1]): < 80% | Activity (Calu-1 [2]): > 80% | Activity (Calu-1 [3]): > 80% | Activity (Calu-1 [4]): < 80%
